Reference: patent US20180049996A1, “THERAPEUTIC AGENT FOR CHRONIC RESPIRATORY DISEASE AND COMPOSITION FOR INHIBITING CARDIAC FIBROSIS” (NIPPON HYPOX LABORATORIES INCORPORATED, priority 2015, published 2018)

Key:
[1] = test system: Myocardial Disorder Induced by Doxorubicin; assay: Histopathologic examination of the hearts (light microscope), myocardial disorder induced by doxorubicin; type: in vivo, female SD rats; details: Test group 1: doxorubicin 13 mg/kg alone
Procedure: (§1) Doxorubicin is used to produce disease-model animals of cardiomyopathy. The doxorubicin and 2,3,5-trimethylhydroquinone-1-hexyl ether (HTHQ) as the hydroquinone derivative represented by the general formula (1) described above of the present invention were simultaneously administered to female SD rats of 4 week old after birth to examine the effect of the action. The test groups consisted of the control group to which sterile saline was administered; test group 1 to which doxorubicin (13 mg/kg body weight) alone was administered; test group 2 to which doxorubicin (13 mg/kg body weight) and HTHQ (50 mg/kg body weight) were administered in combination; and test group 3 to which doxorubicin (13 mg/kg body weight), HTHQ (50 mg/kg body weight) and recombinant human erythropoietin (400 IU/kg body weight) were administered in combination. […] The test group 3 is used to confirm the presence or absence of the inhibitory effect brought about by combining HTHQ and rHuEPO on myocardial disorder.
Doxorubicin was orally administered in a single dose to the rats in test groups 1 to 3. 2,3,5-trimethylhydroquinone-1-hexyl ether (HTHQ) was orally administered to the rats in test groups 2 and 3 twice in total: 3 days before the administration of doxorubicin and on the day of the administration. Recombinant human erythropoietin was daily administered to the rats in test group 3 starting from 3 days before the administration of doxorubicin by intravenous injection. The number of animals in each group was 16. 8 animals of each group were sacrificed after collecting blood on day 7 and 14 after the administration of doxorubicin, and the autopsy of the hearts, the calculation of the relative weights of the hearts, the histopathologic examination of the hearts and the hematological examination were conducted.
“−” indicates “not found”, “+” indicates “mild”, “++” indicates “moderate”, and “+++” indicates “severe” in severity scores of the table.

[2] = test system: Myocardial Disorder Induced by Doxorubicin; assay: Autopsy and gross pathology of the hearts, myocardial disorder induced by doxorubicin; type: in vivo, female SD rats; details: test groups 1 to 3, doxorubicin 13 mg/kg; compared to the control group
Procedure: (§2) Doxorubicin is used to produce disease-model animals of cardiomyopathy. The doxorubicin and 2,3,5-trimethylhydroquinone-1-hexyl ether (HTHQ) as the hydroquinone derivative represented by the general formula (1) described above of the present invention were simultaneously administered to female SD rats of 4 week old after birth to examine the effect of the action. The test groups consisted of the control group to which sterile saline was administered; test group 1 to which doxorubicin (13 mg/kg body weight) alone was administered; test group 2 to which doxorubicin (13 mg/kg body weight) and HTHQ (50 mg/kg body weight) were administered in combination; and test group 3 to which doxorubicin (13 mg/kg body weight), HTHQ (50 mg/kg body weight) and recombinant human erythropoietin (400 IU/kg body weight) were administered in combination. The recombinant human erythropoietin (rHuEPO) is mainly used in the treatment of renal anemia etc., and has the effect to protect myocardium. The test group 3 is used to confirm the presence or absence of the inhibitory effect brought about by combining HTHQ and rHuEPO on myocardial disorder.
(§3) Doxorubicin was orally administered in a single dose to the rats in test groups 1 to 3. […]

[3] = test system: Creatine phosphokinase (CPK); assay: Creatine phosphokinase (CPK) value in blood, myocardial disorder induced by doxorubicin; type: in vivo, female SD rats; details: Test group 1: doxorubicin 13 mg/kg alone; day 14; p<0.05
Procedure: as §2, §3

[4] = test system: Myocardial Disorder Induced by Doxorubicin; assay: Histopathologic examination of the hearts (transmission electron microscope), myocardial disorder induced by doxorubicin; type: in vivo, female SD rats; details: Test group 1: doxorubicin 13 mg/kg alone; day 7
Procedure: as §1
Doxorubicin was orally administered in a single dose to the rats in test groups 1 to 3. 2,3,5-trimethylhydroquinone-1-hexyl ether (HTHQ) was orally administered to the rats in test groups 2 and 3 twice in total: 3 days before the administration of doxorubicin and on the day of the administration. […]

[5] = test system: Myocardial Disorder Induced by Doxorubicin; assay: Relative weights of the hearts, myocardial disorder induced by doxorubicin; type: in vivo, female SD rats; details: Test group 1: doxorubicin 13 mg/kg alone
From the text: Doxorubicin is used to produce disease-model animals of cardiomyopathy. […] The recombinant human erythropoietin (rHuEPO) is mainly used in the treatment of renal anemia etc., and has the effect to protect myocardium. The test group 3 is used to confirm the presence or absence of the inhibitory effect brought about by combining HTHQ and rHuEPO on myocardial disorder. […] Recombinant human erythropoietin was daily administered to the rats in test group 3 starting from 3 days before the administration of doxorubicin by intravenous injection. The number of animals in each group was 16. 8 animals of each group were sacrificed after collecting blood on day 7 and 14 after the administration of doxorubicin, and the autopsy of the hearts, the calculation of the relative weights of the hearts, the histopathologic examination of the hearts and the hematological examination were conducted. Myocardium is hypertrophied by fibrosing and the weight of the myocardium increases, and the relative weight of the heart tends to increase. […] Also, there was no significant difference between the other groups on day 7 and 14 after the administration (p<0.05).

[6] = test system: Pulmonary Fibrosis Induced by Bleomycin; assay: Gross pathology of lungs, pulmonary fibrosis induced by bleomycin; type: in vivo, male SD rats; details: Test group 1: bleomycin 7.5 mg/kg alone; day 20
Procedure: (§4) Bleomycin is used to produce disease-model animals of interstitial pneumonia. The bleomycin and 2,3,5-trimethylhydroquinone-1-hexyl ether (HTHQ) as the hydroquinone derivative represented by the general formula (1) described above of the present invention were simultaneously administered to male SD rats of 10 week old after birth to examine the effect of the action. The test groups consisted of the control group to which sterile saline was administered; test group 1 to which bleomycin (7.5 mg/kg body weight) alone was administered; test group 2 to which bleomycin (7.5 mg/kg body weight) and HTHQ (50 mg/kg body weight/day) were administered in combination; and test group 3 to which bleomycin (7.5 mg/kg body weight) and HTHQ (200 mg/kg body weight/day) were administered in combination.
In test groups 1 to 3, bleomycin was orally administered in a single dose. In test groups 2 and 3, 2,3,5-trimethylhydroquinone-1-hexyl ether (HTHQ) was daily orally administered for 10 or 20 days starting from 24 h after the administration of bleomycin. In test group 1, olive oil, which was used as a solvent of HTHQ, was daily orally administered at 10 mL/kg/day starting from 24 h after the administration of bleomycin. The number of animals in each group was 16. […]

[7] = test system: Pulmonary Fibrosis Induced by Bleomycin; assay: Bronchoalveolar lavage (BAL) examination, cell numbers, pulmonary fibrosis induced by bleomycin; type: in vivo, male SD rats
Procedure: as §4
(§5) In test groups 1 to 3, bleomycin was orally administered in a single dose. In test groups 2 and 3, 2,3,5-trimethylhydroquinone-1-hexyl ether (HTHQ) was daily orally administered for 10 or 20 days starting from 24 h after the administration of bleomycin. In test group 1, olive oil, which was used as a solvent of HTHQ, was daily orally administered at 10 mL/kg/day starting from 24 h after the administration of bleomycin. The number of animals in each group was 16. 8 animals of each group were sacrificed on days 10 and 20 after the administration of bleomycin and measurement of body weight, lung autopsy, histopathologic examination of lungs and bronchoalveolar lavage examination were conducted.
Bronchoalveolar lavage (BAL) examination was conducted on the rats in the control group and the test groups. When interstitial pneumonia developed, the infiltration of inflammatory cells occurs and thus the total cell number in BAL fluid increases. The total cell numbers on day 10 after the administration of bleomycin were as follows: 2×10^5 cells in the control group, 9×10^5 cells in test group 1 (the bleomycin-single administration group), 6.5×10^5 cells in test group 2 (the low-dose HTHQ-administered group, 50 mg/kg body weight), and 10.5×10^5 cells in test group 3 (the high-dose HTHQ-administered group, 200 mg/kg body weight), and thus the effect of HTHQ administration was not found on day 10 after the administration of bleomycin.
When interstitial pneumonia developed, the infiltration of alveolar macrophages to interstitial tissue occurs and thus the alveolar macrophage number in BAL fluid increases. The alveolar macrophage numbers on day 10 after the administration of bleomycin were as follows: 1.45×10^5 cells in the control group, 4.5×10^5 cells in test group 1 (the bleomycin-single administration group), 1.99×10^5 cells in test group 2 (the low-dose HTHQ-administered group), and 3.24×10^5 cells in test group 3 (the high-dose HTHQ-administered group), and thus the effect of HTHQ administration was not found on day 10 after the administration of bleomycin. However, on day 20 after the administration, while the alveolar macrophage number of the bleomycin-single administration group was 5.5×10^5 cells, the alveolar macrophage number of the low-dose HTHQ-administered group was 3×10^5 cells and the alveolar macrophage number of the high-dose HTHQ-administered group was decreased to 2×10^5 cells.
When interstitial pneumonia developed, the infiltration of inflammatory cells of neutrophils to interstitial tissue occurs and thus the neutrophil number in BAL fluid increases. The neutrophil numbers on day 10 after the administration of bleomycin were as follows: 1.04×10^4 cells in the control group, 2.28×10^5 cells in test group 1 (the bleomycin-single administration group), 1.44×10^5 cells in test group 2 (the low-dose HTHQ-administered group), and 5.83×10^5 cells in test group 3 (the high-dose HTHQ-administered group), and thus the effect of HTHQ was not found on day 10 after the administration of bleomycin. […]

[8] = test system: Pulmonary Fibrosis Induced by Bleomycin; assay: Histopathologic examination of lungs, pulmonary fibrosis induced by bleomycin; type: in vivo, male SD rats; details: Test group 1: bleomycin 7.5 mg/kg alone
Procedure: as §4, §5
The main lung lesions observed in the rats in test group 1 (the bleomycin-single administration group) on day 10 after the administration were the peribronchial and peribronchiola enlargement of alveoli, the hyperplasia of the alveolar wall, the infiltration of monocytes and lymphocytes in alveolar walls and interstitial tissue, and the exudation of alveolar macrophage into alveolar spaces. These lesions were alleviated in rats in test groups 2 and 3 (the HTHQ-administered groups) compared to the tissue in test group 1.
The result of the histopathologic examination of lungs of the control group and the test groups on day 20 after the administration of bleomycin is shown in Table 1 below. “−” indicates “not found”, “+” indicates “mild”, “++” indicates “moderate”, and “+++” indicates “severe” in severity scores. In test group 1 (the bleomycin-single administration group), the hyperplasia and fibrosis of peribronchial and adjacent alveolar walls became remarkable compared to the tissue on day 10 after the administration and the morphology of alveolus almost disappeared due to the infiltration of lymphocytes and neutrophils. The alveolar macrophages infiltrated within alveolar spaces were buried in surrounding tissues.

[9] = test system: Pulmonary Fibrosis Induced by Bleomycin; assay: Body weight and relative weight of lungs, pulmonary fibrosis induced by bleomycin; type: in vivo, male SD rats
Procedure: as §4, §5
The body weight of the rats in the control group increased over time during the test period. […] The weight of the interstitial tissue of lungs tends to increase and the relative weight of lungs tends to rise when the tissue fibroses. […] Thus, it was expected that the degree of the progression of pulmonary fibrosis of the rats in test groups 2 and 3, to which HTHQ was administered, was less than the rats in test group 1.

[10] = Test group 1: bleomycin 7.5 mg/kg alone, day 10
[11] = bleomycin 7.5 mg/kg alone, day 20

COc1cccc2c1C(=O)c1c(O)c3c(c(O)c1C2=O)C[C@@](O)(C(=O)CO)C[C@@H]3O[C@H]1C[C@H](N)[C@H](O)[C@H](C)O1 [doxorubicin, reference compound]
Severity score: Cell infiltration in interstitial tissue ([1]; Day 7 after administration): + | Severity score: Degeneration of myocardial cells ([1]; Day 7 after administration): ++ | Severity score: Loss and disorganization of myocardial fibers ([1]; Day 7 after administration): ++ | Severity score: Loss of intercalated discs ([1]; Day 7 after administration): + | Severity score: Loss of striations ([1]; Day 7 after administration): ++ | Severity score: Vacuolation of myocardial fibers ([1]; Day 7 after administration): + | Severity score: Cell infiltration in interstitial tissue ([1]; Day 14 after administration): − | Severity score: Degeneration of myocardial cells ([1]; Day 14 after administration): +++ | Severity score: Loss and disorganization of myocardial fibers ([1]; Day 14 after administration): +++ | Severity score: Loss of intercalated discs ([1]; Day 14 after administration): ++ | Severity score: Loss of striations ([1]; Day 14 after administration): +++ | Severity score: Vacuolation of myocardial fibers ([1]; Day 14 after administration): +++ | gross pathology of the hearts [2]: Apparent lesions were not observed | creatine phosphokinase (CPK) value [3]: significantly higher than that of the control group | findings in myocardial cells (transmission electron microscope) [4]: Loss of striations, loss of intercalated discs, swelling of mitochondria, loss of mitochondrial outer membrane and detachment of cristae etc. were observed | relative weight of the heart ([5]; Day 7 after administration): 0.3819 ± 0.0204% | relative weight of the heart ([5]; Day 14 after administration): 0.3626 ± 0.0221%

bleomycin [reference compound]
gross pathology of lungs [6]: delomorphous nodules as well as many dark red and light red ecchymoses were observed | alveolar macrophage number in BAL fluid [7, 10]: 4.5×10^5 cells | lymphocyte number in BAL fluid [7, 10]: 2.72×10^5 cells | neutrophil number in BAL fluid [7, 10]: 2.28×10^5 cells | total cell number in BAL fluid [7, 10]: 9×10^5 cells | alveolar macrophage number in BAL fluid [7, 11]: 5.5×10^5 cells | lymphocyte number in BAL fluid [7, 11]: 2.09×10^5 cells | neutrophil number in BAL fluid [7, 11]: 4.97×10^5 cells | total cell number in BAL fluid [7, 11]: 12.8×10^5 cells | histopathologic findings of lungs ([8]; day 10): pulmonary fibrosis has progressed | Severity score: Alveolar space, Bleeding ([8]; day 20 after bleomycin): + | Severity score: Alveolar space, Macrophage accumulation ([8]; day 20 after bleomycin): +++ | Severity score: Alveolar space, Protein exudation ([8]; day 20 after bleomycin): +++ | Severity score: Alveolar wall, Fibroblast accumulation ([8]; day 20 after bleomycin): +++ | Severity score: Alveolar wall, Fibrosis of interstitial tissue ([8]; day 20 after bleomycin): +++ | Severity score: Alveolar wall, Interstitial edema ([8]; day 20 after bleomycin): + | Severity score: Alveolar wall, Mononuclear cell infiltration ([8]; day 20 after bleomycin): +++ | Severity score: Circumvascular region, Perivascular edema ([8]; day 20 after bleomycin): + | Severity score: Circumvascular region, Plasma cell infiltration ([8]; day 20 after bleomycin): + | Severity score: Peribronchial and peribronchiolar regions, Fibrosis of interstitial tissue ([8]; day 20 after bleomycin): +++ | Severity score: Peribronchial and peribronchiolar regions, Lymphoid follicle hyperplasia ([8]; day 20 after bleomycin): ++ | Severity score: Type II alveolar epithelial cell, Adenomatous hyperplasia ([8]; day 20 after bleomycin): ++ | Severity score: Type II alveolar epithelial cell, Atypia and dysplasia ([8]; day 20 after bleomycin): ++ | body weight ([9]; test groups 1 to 3, bleomycin 7.5 mg/kg single dose, during the test period): gradually decreased | relative weight of lungs ([9]; test groups 1 to 3, bleomycin 7.5 mg/kg, compared to the control group, p<0.01): significantly increased
